Laboratory results from US20240217951A1, “PCSK9 INHIBITORS AND METHODS OF USE THEREOF” (AstraZeneca AB, priority 2022, published 2024).
pIC50, pKd: −log10 of the molar value.

What was measured:
human PCSK9 = molecular target: T1, human PCSK9 (Homo sapiens, UniProt Q8NBP7); experiment: Assay 2 - Biophysical human PCSK9 assay (SPR, Biacore); format: binding; details: geometric mean; SPR at 30° C; read-out: Assay 2 (PCSK9 BIAcore DBA CR) GMean Kd
T1 construct: biotinylated human PCSK9 (31-692)-Avi-His6; His6 (C)
T1 sequence (Q8NBP7 31-692): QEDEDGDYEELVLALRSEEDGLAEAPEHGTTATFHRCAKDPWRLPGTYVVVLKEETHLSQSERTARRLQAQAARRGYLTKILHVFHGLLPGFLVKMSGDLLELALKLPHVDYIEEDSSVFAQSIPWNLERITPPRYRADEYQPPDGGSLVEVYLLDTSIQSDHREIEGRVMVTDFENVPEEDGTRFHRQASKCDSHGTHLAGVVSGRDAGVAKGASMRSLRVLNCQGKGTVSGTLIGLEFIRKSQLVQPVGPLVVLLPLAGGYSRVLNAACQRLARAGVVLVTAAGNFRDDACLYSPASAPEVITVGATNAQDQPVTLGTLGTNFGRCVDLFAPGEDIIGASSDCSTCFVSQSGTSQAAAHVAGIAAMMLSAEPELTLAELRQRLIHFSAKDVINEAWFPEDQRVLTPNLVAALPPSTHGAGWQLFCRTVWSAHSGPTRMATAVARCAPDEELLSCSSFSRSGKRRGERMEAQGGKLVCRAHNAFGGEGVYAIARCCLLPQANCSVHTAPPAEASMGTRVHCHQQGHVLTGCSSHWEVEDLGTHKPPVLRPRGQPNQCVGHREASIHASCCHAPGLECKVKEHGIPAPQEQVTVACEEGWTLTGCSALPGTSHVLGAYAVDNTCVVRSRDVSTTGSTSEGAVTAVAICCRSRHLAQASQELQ
Procedure: Assay 2—Biophysical Human PCSK9 Assay
The SPR binding experiments were performed on a Biacore S200 optical biosensor unit at 30° C. A Series S Sensor Chip SA that is designed to bind biotinylated molecules for interaction analysis in Biacore systems was equilibrated at room temperature prior to use. The running buffer for protein tethering and subsequent ligand binding experiments was 10 mM HEPES pH 7.4, 150 mM NaCl, 0.05% (v/v) Tween 20 pH 7.4.
For the surface tethering of PCSK9, biotinylated human PCSK9 (31-692)-Avi-His6 at a concentration of 0.5 mg/mL was used. Prior to the surface tethering, the surface was exposed to a solution of 50 mM NaOH, 500 mM NaCl via 3 consecutive injections of this solution with a contact time of 60 s and a flowrate of 10 μL min^−1 to remove non-conjugated streptavidin. The PCSK9 protein was diluted to a concentration of 20 μg/mL using running buffer and injected with a contact time of 180-300 s and a flowrate of 10 μL min^−1 over a single flow channel (typically flow channel 2 or flow channel 4) with the aim to achieve protein capture levels of >5000 response units (RU). Remaining biotin binding sites were blocked via 2 consecutive injections of a 10 μM D-biotin solution in running buffer with a contact time of 60 s and a flowrate of 10 μL min^−1 over all flow-channels. Flow-channels 1 and 3 typically served as a reference surface throughout the subsequent binding experiments.
The binding experiments were all performed at a flow rate of 30 PL min^−1 and by employing the method of single-cycle kinetics. This approach involves the sequential injection of a compound concentration series without regeneration steps. A contact time between 90-150 s was selected, which was followed by a 40 min dissociation phase to allow for a proper estimation of the dissociation rate constant. Test compounds were delivered in DMSO at a concentration of 10 mM and a digital dispenser HP D300 was used to set up the compound concentration series using 6 concentrations. The tested concentrations have been 30, 100, 300, 1000, 3000 and 10000 nM. Prior to injecting any compound, the surfaces were equilibrated by injecting running buffer over them in three separate pulses. The data collection rate was set to 10 Hz.
The raw sensorgrams of the compound injections were first subjected to reference subtraction (subtracting the signal from flow channel 1 and/or 3 from the signal from channels 2 and/or 4 respectively) and then blank subtraction (subtracting the signal from injecting DMSO controls from the reference subtracted data). The resulting double-referenced sensorgrams were then fitted using a 1:1 binding interaction model using the manufactures software package to extract kinetic- and affinity data. Active compounds have been defined by creating a detectable binding signal at the highest compound concentration ([…]) of 3 RUs. Kinetic- and affinity data on active compounds are only provided for those compounds where the binding signal at the highest compound concentration ([…]) is 50% of the theoretical maximum binding signal for a 1:1 binding interaction (Rmax, typically between 15-20 RUs) in order to enable a proper fitting of the data.

[1] = molecular target: T2, potassium ion channel hERG (human Ether-á-go-go-Related Gene) (Homo sapiens, UniProt Q12809); experiment: Assay 5 - hERG assay (SyncroPatch 384PE patch clamp, CHO cells); format: cell-based; details: geometric mean; CHO cells over-expressing hERG; read-out: Assay 5 (hERG Hu CHO IF EPh CR-Syncro) GMean IC50
T2 construct: expressed in transfected cells; host or cells: Chinese hamster ovary K1 (CHO)
T2 sequence (Q12809 whole entry): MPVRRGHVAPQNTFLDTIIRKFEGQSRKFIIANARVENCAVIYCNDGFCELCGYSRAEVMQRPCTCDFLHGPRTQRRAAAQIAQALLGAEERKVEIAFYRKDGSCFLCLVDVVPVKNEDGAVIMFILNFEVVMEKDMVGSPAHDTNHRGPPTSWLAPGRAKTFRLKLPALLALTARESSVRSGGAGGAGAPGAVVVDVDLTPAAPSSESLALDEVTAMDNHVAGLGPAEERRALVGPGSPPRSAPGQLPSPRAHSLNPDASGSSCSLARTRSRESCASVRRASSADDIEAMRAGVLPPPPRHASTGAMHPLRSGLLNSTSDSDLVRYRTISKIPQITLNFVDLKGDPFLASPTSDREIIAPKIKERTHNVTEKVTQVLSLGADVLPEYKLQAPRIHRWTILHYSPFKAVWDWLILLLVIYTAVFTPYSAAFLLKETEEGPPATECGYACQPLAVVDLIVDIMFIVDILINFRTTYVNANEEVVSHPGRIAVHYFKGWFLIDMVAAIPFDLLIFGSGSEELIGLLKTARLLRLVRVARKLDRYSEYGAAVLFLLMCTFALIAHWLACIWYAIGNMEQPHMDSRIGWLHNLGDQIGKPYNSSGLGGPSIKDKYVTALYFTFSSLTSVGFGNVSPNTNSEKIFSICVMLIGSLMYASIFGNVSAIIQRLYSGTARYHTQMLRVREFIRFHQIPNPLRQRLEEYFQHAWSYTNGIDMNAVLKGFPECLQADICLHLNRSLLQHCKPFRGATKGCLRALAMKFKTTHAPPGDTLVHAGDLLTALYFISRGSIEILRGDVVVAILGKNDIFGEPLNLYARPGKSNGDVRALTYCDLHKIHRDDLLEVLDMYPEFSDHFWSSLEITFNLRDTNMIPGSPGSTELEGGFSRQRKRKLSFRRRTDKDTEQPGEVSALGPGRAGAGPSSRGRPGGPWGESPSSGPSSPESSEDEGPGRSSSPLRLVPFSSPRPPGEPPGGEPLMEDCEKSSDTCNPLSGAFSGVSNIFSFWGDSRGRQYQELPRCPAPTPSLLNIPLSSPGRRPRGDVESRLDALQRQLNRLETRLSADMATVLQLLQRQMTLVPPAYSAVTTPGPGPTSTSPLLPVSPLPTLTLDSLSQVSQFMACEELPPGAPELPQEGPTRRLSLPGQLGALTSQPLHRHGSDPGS
Summary of the method: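 Automated high-throughput patch clamp on CHO-K1 cells overexpressing hERG at room temperature, KF/KCl internal with escin, NMDG-containing external at pH 7.4. Six-point cumulative compound addition, 0.33% DMSO final; wells kept only with seal >30 MΩ, Z′ >0.4 and current >0.2 nA.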

[2] = molecular target: GSK3β (Glycogen synthase kinase-3 beta) (Homo sapiens, UniProt P49841); experiment: Assay 6 - GSK3β assay (ThermoFisher Z-Lyte); format: biochemical; details: geometric mean; ATP Conc: 10 μM; read-out: Assay 6 (GSK3β FRET-Z-Lyte CR) GMean IC50 (μM) ATP Conc: 10
GSK3β (Glycogen synthase kinase-3 beta), sequence (P49841 whole entry): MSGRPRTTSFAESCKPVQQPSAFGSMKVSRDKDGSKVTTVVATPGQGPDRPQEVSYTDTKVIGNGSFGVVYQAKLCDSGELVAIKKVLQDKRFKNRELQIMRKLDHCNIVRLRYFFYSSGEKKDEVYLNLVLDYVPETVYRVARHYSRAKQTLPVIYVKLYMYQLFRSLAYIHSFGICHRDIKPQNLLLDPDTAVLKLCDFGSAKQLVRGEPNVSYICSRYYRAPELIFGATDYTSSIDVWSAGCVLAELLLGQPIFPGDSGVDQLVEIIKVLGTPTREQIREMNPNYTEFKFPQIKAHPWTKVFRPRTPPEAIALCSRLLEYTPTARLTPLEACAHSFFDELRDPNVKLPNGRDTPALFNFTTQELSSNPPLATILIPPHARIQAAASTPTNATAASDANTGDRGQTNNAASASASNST
Summary of the method: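 Z-Lyte fluorescence kinase assay with 0.22-0.92 ng GSK3β and 2 μM Ser/Thr 09 peptide in 50 mM HEPES pH 7.5, 10 mM MgCl2, 1 mM EGTA, 0.01% BRIJ-35. Kinase reaction 60 min at room temperature, then 60 min development. 10-point 3-fold titration from 10 μM in 1% DMSO, fitted to a sigmoidal dose-response curve.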

PCSK9 = PCSK9 (Homo sapiens, UniProt Q8NBP7, G670E/V474I); experiment: biochemical
PCSK9, sequence (Q8NBP7 with tags, fused parts or gaps V474I/G670E): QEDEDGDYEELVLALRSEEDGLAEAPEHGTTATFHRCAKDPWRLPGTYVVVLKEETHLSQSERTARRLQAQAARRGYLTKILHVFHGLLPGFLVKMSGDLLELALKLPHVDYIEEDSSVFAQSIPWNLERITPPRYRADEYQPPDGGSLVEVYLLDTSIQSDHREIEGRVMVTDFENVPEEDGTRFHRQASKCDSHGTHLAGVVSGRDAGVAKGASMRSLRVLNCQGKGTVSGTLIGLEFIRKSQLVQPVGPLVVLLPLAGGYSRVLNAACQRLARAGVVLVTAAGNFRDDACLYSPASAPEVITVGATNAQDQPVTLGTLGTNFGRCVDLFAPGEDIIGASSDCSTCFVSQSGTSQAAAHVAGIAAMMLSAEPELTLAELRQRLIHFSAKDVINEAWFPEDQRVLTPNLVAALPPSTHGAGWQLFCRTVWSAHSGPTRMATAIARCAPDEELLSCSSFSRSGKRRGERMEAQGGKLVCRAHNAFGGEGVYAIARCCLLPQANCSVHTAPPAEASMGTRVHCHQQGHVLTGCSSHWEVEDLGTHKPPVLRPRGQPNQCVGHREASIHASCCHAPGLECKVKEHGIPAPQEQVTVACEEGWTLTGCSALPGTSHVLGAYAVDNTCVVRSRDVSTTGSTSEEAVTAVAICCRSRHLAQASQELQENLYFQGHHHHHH

Compound	pKd (human PCSK9)	pIC50 [1]	IC50 [2] [µM]	pIC50 (PCSK9)
N#Cc1cnc(N[C@H]2CC[C@H](Nc3ccc(-n4ccccc4=O)cn3)C2)cn1 [Example 5, 5-(((1S,3S)-3-((2-Oxo-2H-[1,3′-bipyridin]-6′-yl)amino)cyclopentyl)amino)pyrazine-2-carbonitrile]	6.39	4.73	0.713	6.30
Cc1ncc(N[C@H]2CC[C@H](Nc3ccc(-n4cccc(C)c4=O)cn3)C2)nc1C [Example 18, 6′-(((1S,3S)-3-((5,6-Dimethylpyrazin-2-yl)amino)cyclopentyl)amino)-3-methyl-2H-[1,3′-bipyridin]-2-one]	7.85	< 4.40	> 10	7.77
Cc1ncc(N[C@H]2CC[C@H](Nc3ccc(N4C(=O)CN(C)C4=O)cn3)C2)nc1C [Example 22, 3-(6-(((1S,3S)-3-((5,6-Dimethylpyrazin-2-yl)amino)cyclopentyl)amino)pyridin-3-yl)-1-methylimidazolidine-2,4-dione]	7.03	< 4.40	> 10	6.97
Cc1cnc(N[C@H]2CC[C@H](Nc3ccc(N4CC(=O)N(C)C4=O)cn3)C2)cn1 [Example 39, 3-Methyl-1-(6-(((1S,3S)-3-((5-methylpyrazin-2-yl)amino)cyclopentyl)amino)pyridin-3-yl)imidazolidine-2,4-dione]	7.48	< 4.40	> 10	7.47
O=C(O)[C@@H]1CCC(=O)N1c1ccc(N[C@H]2CC[C@H](Nc3cnc(OC(F)F)cn3)C2)nc1 [Example 79, (S)-1-(6-(((1S,3S)-3-((5-(Difluoromethoxy)pyrazin-2-yl)amino)cyclopentyl)amino)pyridin-3-yl)-5-oxopyrrolidine-2-carboxylic acid]	6.37	< 4.40	> 10	6.08
CN1CCN(c2ccc(=O)n(-c3ccc(N[C@H]4CC[C@H](Nc5cnc(OC(F)F)cn5)C4)nc3)c2)CC1 [Example 81, 6′-(((1S,3S)-3-((5-(Difluoromethoxy)pyrazin-2-yl)amino)cyclopentyl)amino)-5-(4-methylpiperazin-1-yl)-2H-[1,3′-bipyridin]-2-one]	7.18	< 4.40	0.498	6.69
O=c1ccccn1-c1ccc(N[C@H]2CC[C@H](Nc3cnc(OC(F)F)cn3)C2)nc1 [Example 86, 6′-(((1S,3S)-3-((5-(Difluoromethoxy)pyrazin-2-yl)amino)cyclopentyl)amino)-2H-[1,3′-bipyridin]-2-one]	7.19	4.87	> 10	7.14
CN1C(=O)CN(c2ccc(N[C@H]3CC[C@H](Nc4cnc(OC(F)F)cn4)C3)nc2)C1=O [Example 92, 1-(6-(((1S,3S)-3-((5-(Difluoromethoxy)pyrazin-2-yl)amino)cyclopentyl)amino)pyridin-3-yl)-3-methylimidazolidine-2,4-dione]	7.28	5.36	> 10	7.23
CN1CC(=O)N(c2ccc(N[C@H]3CC[C@H](Nc4cnc(Cl)cn4)C3)nc2)C1=O [Example 100, 3-(6-(((1S,3S)-3-((5-Chloropyrazin-2-yl)amino)cyclopentyl)amino)pyridin-3-yl)-1-methylimidazolidine-2,4-dione]	7.35	< 4.40	> 10	7.55
Cc1nc(N[C@H]2CC[C@H](Nc3ccc(-n4ccccc4=O)cn3)C2)cnc1Cl [Example 102, 6′-(((1S,3S)-3-((5-Chloro-6-methylpyrazin-2-yl)amino)cyclopentyl)amino)-2H-[1,3′-bipyridin]-2-one]	6.91	4.75	> 10	7.07
O=c1ccccn1-c1ccc(N[C@H]2CC[C@H](Nc3cnc(OC(F)(F)F)cn3)C2)nc1 [Example 111, 6′-(((1S,3S)-3-((5-(Trifluoromethoxy)pyrazin-2-yl)amino)cyclopentyl)amino)-2H-[1,3′-bipyridin]-2-one]	6.89	4.68	> 10	6.83
